Columns and labels:
Assay type in all cases: in vivo
Phakopsora pachyrhizi = experiment: Asian soybean rust (PHAKPA) disease control; set-up: key: A: > 80; B: ≤ 80; C: Not Tested; D: No Activity Observed in the Reported Assay; settings: 25 ppm; for PHAKPA disease control, 1DP: 1 Day Protectant; for PHAKPA disease control, 3DC: 3 Day Curative
Zymoseptoria tritici = experiment: Leaf blotch of wheat (SEPTTR) disease control on wheat seedlings; settings: low volume application, 125.1 g/H; for SEPTTR 1DP, LV activity at 125.1 g/H (% Control rating): 1 Day Protectant; for SEPTTR 3DC, LV activity at 125.1 g/H (% Control rating): 3 Day Curative
Puccinia triticina = experiment: Wheat brown rust (PUCCRT) disease control on wheat seedlings; settings: low volume application, 125.1 g/H; for PUCCRT 1DP, LV activity at 125.1 g/H (% Control rating): 1 Day Protectant; for PUCCRT 3DC, LV activity at 125.1 g/H (% Control rating): 3 Day Curative

With `CCC(CC)[C@@H](Oc1ccc(F)cc1)[C@H](C)OC(=O)[C@H](C)NC(=O)c1nccc(OC)c1OC(C)=O` [Cmpd 598] the “PHAKPA disease control, 1DP” value (Phakopsora pachyrhizi) was “A (> 80)”, the “PHAKPA disease control, 3DC” value (Phakopsora pachyrhizi) was “B (≤ 80)” and the “SEPTTR 1DP, LV activity at 125.1 g/H (% Control rating)” value (“SEPTTR 1DP … (% Control rating)” below) (Zymoseptoria tritici) was “A (> 80)”. For the same molecule, the “SEPTTR 3DC, LV activity at 125.1 g/H (% Control rating)” value (“SEPTTR 3DC … (% Control rating)” below) (Zymoseptoria tritici) was “A (> 80)”, the “PUCCRT 1DP, LV activity at 125.1 g/H (% Control rating)” value (“PUCCRT 1DP … (% Control rating)” below) (Puccinia triticina) was “A (> 80)” and the “PUCCRT 3DC, LV activity at 125.1 g/H (% Control rating)” value (“PUCCRT 3DC … (% Control rating)” below) (Puccinia triticina) was “A (> 80)”.
In the case of `CCC(CC)[C@@H](Oc1cccc(Cl)c1)[C@H](C)OC(=O)[C@H](C)NC(=O)c1nccc(OC)c1OC(C)=O` [Cmpd 599], the “PHAKPA disease control, 1DP” value (Phakopsora pachyrhizi) is reported as “A (> 80)”, the “PHAKPA disease control, 3DC” value (Phakopsora pachyrhizi) is reported as “A (> 80)” and the “SEPTTR 1DP … (% Control rating)” value (Zymoseptoria tritici) is reported as “A (> 80)”. The “SEPTTR 3DC … (% Control rating)” value (Zymoseptoria tritici) was “A (> 80)”, the “PUCCRT 1DP … (% Control rating)” value (Puccinia triticina) was “B (≤ 80)” and the “PUCCRT 3DC … (% Control rating)” value (Puccinia triticina) was “A (> 80)”.
`CCC(CC)[C@@H](Oc1ccc(Cl)cc1)[C@H](C)OC(=O)[C@H](C)NC(=O)c1nccc(OC)c1OC(C)=O` [Cmpd 600] was tested, and the “PHAKPA disease control, 1DP” value (Phakopsora pachyrhizi) was “B (≤ 80)”, the “PHAKPA disease control, 3DC” value (Phakopsora pachyrhizi) was “B (≤ 80)” and the “SEPTTR 1DP … (% Control rating)” value (Zymoseptoria tritici) was “A (> 80)”. For the same molecule, the “SEPTTR 3DC … (% Control rating)” value (Zymoseptoria tritici) was “A (> 80)”, the “PUCCRT 1DP … (% Control rating)” value (Puccinia triticina) was “A (> 80)” and the “PUCCRT 3DC … (% Control rating)” value (Puccinia triticina) was “A (> 80)”.
With `CCC(CC)[C@@H](Oc1ccccc1Cl)[C@H](C)OC(=O)[C@H](C)NC(=O)c1nccc(OC)c1OC(C)=O` [Cmpd 604] the “PHAKPA disease control, 1DP” value (Phakopsora pachyrhizi) was “B (≤ 80)”, the “PHAKPA disease control, 3DC” value (Phakopsora pachyrhizi) was “B (≤ 80)” and the “SEPTTR 1DP … (% Control rating)” value (Zymoseptoria tritici) was “B (≤ 80)”. The “SEPTTR 3DC … (% Control rating)” value (Zymoseptoria tritici) was “A (> 80)”, the “PUCCRT 1DP … (% Control rating)” value (Puccinia triticina) was “A (> 80)” and the “PUCCRT 3DC … (% Control rating)” value (Puccinia triticina) was “A (> 80)”.
With `COc1ccnc(C(=O)N[C@@H](C)C(=O)O[C@@H](C)[C@H](Oc2cccc(F)c2)C(C)C)c1OCOC(C)=O` [Cmpd 614] the “PHAKPA disease control, 1DP” value (Phakopsora pachyrhizi) was “A (> 80)”, the “PHAKPA disease control, 3DC” value (Phakopsora pachyrhizi) was “A (> 80)” and the “SEPTTR 1DP … (% Control rating)” value (Zymoseptoria tritici) was “B (≤ 80)”. For the same molecule, the “SEPTTR 3DC … (% Control rating)” value (Zymoseptoria tritici) was “A (> 80)”, the “PUCCRT 1DP … (% Control rating)” value (Puccinia triticina) was “A (> 80)” and the “PUCCRT 3DC … (% Control rating)” value (Puccinia triticina) was “A (> 80)”.
`COc1ccnc(C(=O)N[C@@H](C)C(=O)O[C@@H](C)[C@H](Oc2ccc(F)cc2)C(C)C)c1OCOC(C)=O` [Cmpd 615] was tested, and the “PHAKPA disease control, 1DP” value (Phakopsora pachyrhizi) was “A (> 80)”, the “PHAKPA disease control, 3DC” value (Phakopsora pachyrhizi) was “B (≤ 80)” and the “SEPTTR 1DP … (% Control rating)” value (Zymoseptoria tritici) was “A (> 80)”. For the same molecule, the “SEPTTR 3DC … (% Control rating)” value (Zymoseptoria tritici) was “A (> 80)”, the “PUCCRT 1DP … (% Control rating)” value (Puccinia triticina) was “A (> 80)” and the “PUCCRT 3DC … (% Control rating)” value (Puccinia triticina) was “A (> 80)”.
In the case of `COc1ccnc(C(=O)N[C@@H](C)C(=O)O[C@@H](C)[C@H](Oc2cc(F)ccc2F)C(C)C)c1OCOC(C)=O` [Cmpd 616], the “PHAKPA disease control, 1DP” value (Phakopsora pachyrhizi) is reported as “A (> 80)”, the “PHAKPA disease control, 3DC” value (Phakopsora pachyrhizi) is reported as “A (> 80)” and the “SEPTTR 1DP … (% Control rating)” value (Zymoseptoria tritici) is reported as “B (≤ 80)”. The “SEPTTR 3DC … (% Control rating)” value (Zymoseptoria tritici) was “A (> 80)”, the “PUCCRT 1DP … (% Control rating)” value (Puccinia triticina) was “A (> 80)” and the “PUCCRT 3DC … (% Control rating)” value (Puccinia triticina) was “A (> 80)”.
In the case of `COc1ccnc(C(=O)N[C@@H](C)C(=O)O[C@@H](C)[C@H](Oc2cccc3ccccc23)C(C)C)c1OCOC(C)=O` [Cmpd 621], the “PHAKPA disease control, 1DP” value (Phakopsora pachyrhizi) is reported as “A (> 80)”, the “PHAKPA disease control, 3DC” value (Phakopsora pachyrhizi) is reported as “D” and the “SEPTTR 1DP … (% Control rating)” value (Zymoseptoria tritici) is reported as “B (≤ 80)”. The “SEPTTR 3DC … (% Control rating)” value (Zymoseptoria tritici) was “A (> 80)”, the “PUCCRT 1DP … (% Control rating)” value (Puccinia triticina) was “A (> 80)” and the “PUCCRT 3DC … (% Control rating)” value (Puccinia triticina) was “A (> 80)”.
In the case of `COc1ccnc(C(=O)N[C@@H](C)C(=O)O[C@@H](C)[C@H](Oc2ccc(F)cc2)C(C)C)c1OC(C)=O` [Cmpd 626], the “PHAKPA disease control, 1DP” value (Phakopsora pachyrhizi) is reported as “A (> 80)”, the “PHAKPA disease control, 3DC” value (Phakopsora pachyrhizi) is reported as “B (≤ 80)” and the “SEPTTR 1DP … (% Control rating)” value (Zymoseptoria tritici) is reported as “A (> 80)”. The “SEPTTR 3DC … (% Control rating)” value (Zymoseptoria tritici) was “A (> 80)”, the “PUCCRT 1DP … (% Control rating)” value (Puccinia triticina) was “A (> 80)” and the “PUCCRT 3DC … (% Control rating)” value (Puccinia triticina) was “A (> 80)”.
`COc1ccnc(C(=O)N[C@@H](C)C(=O)O[C@@H](C)[C@H](Oc2cc(F)ccc2F)C(C)C)c1OC(C)=O` [Cmpd 627] was tested, and the “PHAKPA disease control, 1DP” value (Phakopsora pachyrhizi) was “B (≤ 80)”, the “PHAKPA disease control, 3DC” value (Phakopsora pachyrhizi) was “B (≤ 80)” and the “SEPTTR 1DP … (% Control rating)” value (Zymoseptoria tritici) was “B (≤ 80)”. For the same molecule, the “SEPTTR 3DC … (% Control rating)” value (Zymoseptoria tritici) was “A (> 80)”, the “PUCCRT 1DP … (% Control rating)” value (Puccinia triticina) was “A (> 80)” and the “PUCCRT 3DC … (% Control rating)” value (Puccinia triticina) was “A (> 80)”.
